Activity calls are given as the source filed them. The rule behind the calls is not given here.
Assays:
[1] = test system: SK-MEL-28; experiment: Antiproliferative activity against human SK-MEL-28 cells assessed as growth inhibition incubated for 72 hrs by celltiter-glo assay; format: functional
[2] = test system: A2780; experiment: Antiproliferative activity against human A2780 cells assessed as of viable cell signal at minimum maximum cell growth incubated for 72 hrs by celltiter-glo assay relative to control; format: functional
[3] = test system: HT-1080; experiment: Antiproliferative activity against human HT-1080 cells assessed as viable cell signal at maximum growth inhibition incubated for 72 hrs by celltiter-glo assay relative to control; format: functional
[4] = test system: SJSA-1; experiment: Antiproliferative activity against human SJSA-1 cells assessed as growth inhibition incubated for 72 hrs by celltiter-glo assay; format: functional
[5] = test system: NCI-H727; experiment: Antiproliferative activity against human NCI-H727 cells assessed as viable cell signal at maximum growth inhibition incubated for 72 hrs by celltiter-glo assay relative to control; format: functional
[6] = test system: HL-60; experiment: Antiproliferative activity against human HL-60 cells assessed as growth inhibition incubated for 72 hrs by celltiter-glo assay; format: functional
[7] = test system: BT-549; experiment: Antiproliferative activity against human BT-549 cells assessed as of viable cell signal at minimum maximum cell growth incubated for 72 hrs by celltiter-glo assay relative to control; format: functional
[8] = test system: NCI-N87; experiment: Antiproliferative activity against human NCI-N87 cells assessed as of viable cell signal at minimum maximum cell growth incubated for 72 hrs by celltiter-glo assay relative to control; format: functional
[9] = test system: MDA-MB-231; experiment: Antiproliferative activity against human MDA-MB-231 cells assessed as growth inhibition incubated for 72 hrs by celltiter-glo assay; format: functional
[10] = test system: U-87 MG; experiment: Antiproliferative activity against human U-87 MG cells assessed as growth inhibition incubated for 72 hrs by celltiter-glo assay; format: functional, U-87MG ATCC
[11] = test system: COLO 205; experiment: Antitumor activity against human COLO 205 cells xenografted in Nude mouse assessed as tumor regression at 50 mg/kg, ip administered one dose every 2 day repeated for 12 days; format: functional, organism-based; settings: time 12.0 day
[12] = test system: SCLC; experiment: Antiproliferative activity against human SCLC cells assessed as viable cell signal at maximum growth inhibition incubated for 72 hrs by celltiter-glo assay relative to control; format: functional
[13] = test system: Calu-1; experiment: Antiproliferative activity against human Calu-1 cells assessed as viable cell signal at maximum growth inhibition incubated for 72 hrs by celltiter-glo assay relative to control; format: functional
[14] = test system: T47D; experiment: Antiproliferative activity against human T47D cells assessed as growth inhibition incubated for 72 hrs by celltiter-glo assay; format: functional
[15] = biological target: Serine/threonine-protein kinase D1 (Homo sapiens) (UniProt Q15139); experiment: Inhibition of recombinant human PKC-mu at 10 uM relative to control
Serine/threonine-protein kinase D1 (Homo sapiens), sequence (Q15139 whole entry): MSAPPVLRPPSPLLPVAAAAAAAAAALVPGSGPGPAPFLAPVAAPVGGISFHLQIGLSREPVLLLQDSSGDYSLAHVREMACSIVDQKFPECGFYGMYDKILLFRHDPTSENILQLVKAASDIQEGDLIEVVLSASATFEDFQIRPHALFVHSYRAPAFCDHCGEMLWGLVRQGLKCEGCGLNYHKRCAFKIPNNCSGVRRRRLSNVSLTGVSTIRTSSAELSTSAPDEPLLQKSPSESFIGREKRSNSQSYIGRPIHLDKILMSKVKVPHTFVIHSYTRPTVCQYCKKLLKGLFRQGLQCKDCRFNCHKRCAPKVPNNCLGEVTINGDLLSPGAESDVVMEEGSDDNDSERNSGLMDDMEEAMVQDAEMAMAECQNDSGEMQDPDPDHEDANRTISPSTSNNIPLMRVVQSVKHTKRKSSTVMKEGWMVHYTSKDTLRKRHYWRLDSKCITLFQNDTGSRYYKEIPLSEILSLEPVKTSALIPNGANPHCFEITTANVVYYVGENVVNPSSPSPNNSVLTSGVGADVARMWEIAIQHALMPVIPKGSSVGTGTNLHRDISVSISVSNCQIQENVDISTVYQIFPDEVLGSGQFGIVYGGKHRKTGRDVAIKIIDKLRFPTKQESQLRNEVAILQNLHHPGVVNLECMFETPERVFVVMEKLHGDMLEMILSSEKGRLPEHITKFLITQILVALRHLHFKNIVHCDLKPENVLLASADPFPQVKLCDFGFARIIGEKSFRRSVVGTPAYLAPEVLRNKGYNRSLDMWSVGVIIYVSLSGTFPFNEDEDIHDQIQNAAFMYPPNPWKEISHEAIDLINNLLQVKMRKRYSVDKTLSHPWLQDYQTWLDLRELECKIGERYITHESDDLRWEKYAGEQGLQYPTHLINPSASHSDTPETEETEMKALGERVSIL

[16] = biological target: NUAK family SNF1-like kinase 1 (Homo sapiens) (UniProt O60285); experiment: Inhibition of full length N-terminal his6-tagged recombinant human ARK5 (2 to end residues) expressed in baculovirus Sf21 cells at 10 uM relative to control
NUAK family SNF1-like kinase 1 (Homo sapiens), sequence (O60285 whole entry, the tested form may be a part): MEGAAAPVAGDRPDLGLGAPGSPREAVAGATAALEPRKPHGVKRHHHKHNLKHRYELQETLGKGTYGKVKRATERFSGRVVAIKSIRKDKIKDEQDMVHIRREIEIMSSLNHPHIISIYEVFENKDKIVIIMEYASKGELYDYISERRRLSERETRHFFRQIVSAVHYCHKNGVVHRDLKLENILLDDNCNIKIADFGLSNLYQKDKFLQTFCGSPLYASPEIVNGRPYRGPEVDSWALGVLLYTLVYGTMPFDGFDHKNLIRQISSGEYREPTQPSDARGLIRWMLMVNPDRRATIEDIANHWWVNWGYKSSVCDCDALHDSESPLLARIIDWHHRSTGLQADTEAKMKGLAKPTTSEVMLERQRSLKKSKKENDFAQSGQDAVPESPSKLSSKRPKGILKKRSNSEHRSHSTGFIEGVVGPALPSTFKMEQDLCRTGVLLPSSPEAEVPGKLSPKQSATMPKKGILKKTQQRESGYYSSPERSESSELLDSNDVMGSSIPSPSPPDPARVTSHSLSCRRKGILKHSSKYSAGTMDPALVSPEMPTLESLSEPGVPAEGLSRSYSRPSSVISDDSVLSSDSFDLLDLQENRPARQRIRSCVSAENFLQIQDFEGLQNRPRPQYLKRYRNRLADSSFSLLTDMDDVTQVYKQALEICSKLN

[17] = biological target: Serine/threonine-protein kinase 10 (Homo sapiens) (UniProt O94804); experiment: Inhibition of N-terminal his6-tagged recombinant human LOK (1 to 348 residues) expressed in baculovirus Sf21 cells at 10 uM relative to control
Serine/threonine-protein kinase 10 (Homo sapiens), sequence (O94804 whole entry, looked up, the tested form may be a part): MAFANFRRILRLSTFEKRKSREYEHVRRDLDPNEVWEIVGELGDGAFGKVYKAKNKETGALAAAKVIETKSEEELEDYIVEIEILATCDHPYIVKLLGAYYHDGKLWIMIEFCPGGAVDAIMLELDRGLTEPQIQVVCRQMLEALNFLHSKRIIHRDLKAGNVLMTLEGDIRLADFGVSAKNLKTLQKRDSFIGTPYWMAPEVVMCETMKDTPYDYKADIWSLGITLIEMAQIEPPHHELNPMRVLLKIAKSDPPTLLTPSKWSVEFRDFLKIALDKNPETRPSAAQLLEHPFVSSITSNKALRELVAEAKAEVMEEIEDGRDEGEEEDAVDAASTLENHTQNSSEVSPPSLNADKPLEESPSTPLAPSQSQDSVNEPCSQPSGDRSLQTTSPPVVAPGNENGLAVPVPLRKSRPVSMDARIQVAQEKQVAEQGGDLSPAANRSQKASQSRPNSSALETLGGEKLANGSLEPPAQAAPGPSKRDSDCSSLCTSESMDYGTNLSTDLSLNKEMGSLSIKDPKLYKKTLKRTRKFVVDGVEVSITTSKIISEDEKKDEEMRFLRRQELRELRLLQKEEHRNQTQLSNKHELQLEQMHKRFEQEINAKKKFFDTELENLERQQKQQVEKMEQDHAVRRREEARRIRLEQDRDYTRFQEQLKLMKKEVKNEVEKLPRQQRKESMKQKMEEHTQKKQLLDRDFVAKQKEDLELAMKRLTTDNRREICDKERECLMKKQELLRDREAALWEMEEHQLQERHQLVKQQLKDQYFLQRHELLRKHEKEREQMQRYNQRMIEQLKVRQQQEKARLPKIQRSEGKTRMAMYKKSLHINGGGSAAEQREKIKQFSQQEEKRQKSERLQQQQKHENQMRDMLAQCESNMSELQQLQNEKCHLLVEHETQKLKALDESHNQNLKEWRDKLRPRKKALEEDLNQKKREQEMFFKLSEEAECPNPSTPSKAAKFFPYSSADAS

[18] = test system: A549; experiment: Antimitotic activity against human A549 cells assessed as cell cycle block in G2-M phase measuring by accumulation of 4N DNA content at 10 nmol/L incubated for 24 hrs by PI staining based flow cytometric analysis; format: functional
[19] = test system: PC-3; experiment: Antiproliferative activity against human PC-3 cells assessed as viable cell signal at maximum growth inhibition incubated for 72 hrs by celltiter-glo assay relative to control; format: functional
[20] = test system: SW480; experiment: Antiproliferative activity against human SW480 cells assessed as of viable cell signal at minimum maximum cell growth incubated for 72 hrs by celltiter-glo assay relative to control; format: functional
[21] = test system: HT-29; experiment: Induction of mitotic arrest in human HT-29 cells assessed as effect on pHH3 level at 10 to 250 nmol/L incubated for 19 hrs by ELISA analysis; format: functional, cell-based; settings: dose 10-250 nmol/L
[22] = test system: SK-MEL3; experiment: Antiproliferative activity against human SK-MEL3 cells assessed as growth inhibition incubated for 72 hrs by celltiter-glo assay; format: functional
[23] = test system: SK-MEL-2; experiment: Antiproliferative activity against human SK-MEL-2 cells assessed as viable cell signal at maximum growth inhibition incubated for 72 hrs by celltiter-glo assay relative to control; format: functional
[24] = test system: COLO 205; experiment: Antitumor activity against human COLO 205 cells xenografted in Nude mouse assessed as increase in pHH3 level at 50 to 100 mg/kg, ip measured at 24 to 48 hrs by immunohistochemistry analysis; format: functional, organism-based; settings: dose 50-100 mg/kg, time 24-48 hrs
[25] = test system: MDA-MB-453; experiment: Antiproliferative activity against human MDA-MB-453 cells assessed as growth inhibition incubated for 72 hrs by celltiter-glo assay; format: functional
[26] = test system: NCI-H460; experiment: Antiproliferative activity against human NCI-H460 cells assessed as of viable cell signal at minimum maximum cell growth incubated for 72 hrs by celltiter-glo assay relative to control; format: functional
[27] = test system: RPMI-8226; experiment: Antiproliferative activity against human RPMI-8226 cells assessed as viable cell signal at maximum growth inhibition incubated for 72 hrs by celltiter-glo assay relative to control; format: functional
[28] = test system: PANC-08-13; experiment: Antiproliferative activity against human PANC-08-13 cells assessed as growth inhibition incubated for 72 hrs by celltiter-glo assay; format: functional
[29] = Cytotoxicity against human HUVEC cells assessed as inhibition of cell growth incubated for 72 hrs by celltiter-glo assay; format: toxicity, cell-based
[30] = biological target: Platelet-derived growth factor receptor alpha (Homo sapiens) (UniProt P16234); experiment: Inhibition of N-terminal his6-tagged recombinant human PDGFRalpha (550 to end residues) expressed in baculovirus Sf21 insect cells at 10 uM relative to control
Platelet-derived growth factor receptor alpha (Homo sapiens), sequence (P16234 whole entry): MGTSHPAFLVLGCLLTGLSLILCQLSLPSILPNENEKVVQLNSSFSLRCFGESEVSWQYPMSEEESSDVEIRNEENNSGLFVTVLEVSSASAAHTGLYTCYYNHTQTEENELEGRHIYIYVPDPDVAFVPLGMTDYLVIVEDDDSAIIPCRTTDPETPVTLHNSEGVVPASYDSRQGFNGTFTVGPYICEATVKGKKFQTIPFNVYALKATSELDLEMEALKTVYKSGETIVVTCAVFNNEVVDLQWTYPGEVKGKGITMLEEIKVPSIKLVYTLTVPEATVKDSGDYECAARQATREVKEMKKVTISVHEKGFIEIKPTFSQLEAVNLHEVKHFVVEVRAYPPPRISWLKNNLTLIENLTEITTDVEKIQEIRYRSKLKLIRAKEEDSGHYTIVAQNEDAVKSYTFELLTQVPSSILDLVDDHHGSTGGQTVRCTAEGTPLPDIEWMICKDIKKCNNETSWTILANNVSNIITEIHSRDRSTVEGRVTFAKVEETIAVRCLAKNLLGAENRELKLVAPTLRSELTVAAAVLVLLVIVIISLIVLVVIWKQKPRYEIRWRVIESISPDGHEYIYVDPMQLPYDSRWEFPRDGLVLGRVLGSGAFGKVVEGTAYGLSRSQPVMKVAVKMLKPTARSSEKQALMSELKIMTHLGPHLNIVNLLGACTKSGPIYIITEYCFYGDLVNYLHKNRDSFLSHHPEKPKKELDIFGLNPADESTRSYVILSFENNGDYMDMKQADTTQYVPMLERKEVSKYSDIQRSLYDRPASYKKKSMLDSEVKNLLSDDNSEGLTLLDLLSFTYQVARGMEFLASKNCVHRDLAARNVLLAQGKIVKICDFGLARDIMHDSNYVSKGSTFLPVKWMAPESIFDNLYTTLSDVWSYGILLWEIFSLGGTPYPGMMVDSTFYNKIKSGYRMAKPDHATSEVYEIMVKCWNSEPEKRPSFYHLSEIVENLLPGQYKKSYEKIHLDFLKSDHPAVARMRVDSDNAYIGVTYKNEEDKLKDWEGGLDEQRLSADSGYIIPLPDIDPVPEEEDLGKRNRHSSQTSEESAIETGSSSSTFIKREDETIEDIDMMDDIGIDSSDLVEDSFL

[31] = test system: NCI-H1155; experiment: Antiproliferative activity against human NCI-H1155 cells assessed as viable cell signal at maximum growth inhibition incubated for 72 hrs by celltiter-glo assay relative to control; format: functional
[32] = test system: A549; experiment: Antiproliferative activity against human A549 cells assessed as of viable cell signal at minimum maximum cell growth incubated for 72 hrs by celltiter-glo assay relative to control; format: functional
[33] = test system: HCC1954; experiment: Antiproliferative activity against human HCC1954 cells assessed as of viable cell signal at minimum maximum cell growth incubated for 72 hrs by celltiter-glo assay relative to control; format: functional
[34] = test system: SCLC; experiment: Antiproliferative activity against human SCLC cells assessed as growth inhibition incubated for 72 hrs by celltiter-glo assay; format: functional
[35] = test system: COLO 205; experiment: Antitumor activity against human COLO 205 cells xenografted in Nude mouse assessed as disorganized condense chromatin at 50 to 100 mg/kg, ip measured at 24 to 48 hrs by H and E staining based analysis; format: functional, organism-based; settings: dose 50-100 mg/kg, time 24-48 hrs
[36] = test system: K562; experiment: Antiproliferative activity against human K562 cells assessed as growth inhibition incubated for 72 hrs by celltiter-glo assay; format: functional
[37] = test system: T-24; experiment: Antiproliferative activity against human T24 cells assessed as of viable cell signal at minimum maximum cell growth incubated for 72 hrs by celltiter-glo assay relative to control; format: functional
[38] = test system: Calu-1; experiment: Antiproliferative activity against human Calu-1 cells assessed as of viable cell signal at minimum maximum cell growth incubated for 72 hrs by celltiter-glo assay relative to control; format: functional
[39] = test system: PC-3; experiment: Antiproliferative activity against human PC-3 cells assessed as growth inhibition incubated for 72 hrs by celltiter-glo assay; format: functional

In the case of `C[C@@H](Oc1cc(-n2cnc3ccc(CN4CCN(C)CC4)cc32)sc1C(N)=O)c1ccccc1C(F)(F)F` [GSK-461364], the GI50 [1] is reported as 381 nM, the Emin [2] is reported as 68.5% and the Emax [3] is reported as 223%. The GI50 [4] was 24.4 nM, the Emax [5] was 262% and the GI50 [6] was 17.5 nM. It also gave an Emin [7] of 77.2%, an Emin [8] of 321.5% and a GI50 [9] of 9.15 nM. The GI50 [10] was 7.45 nM, the Activity [11] was “Active” and the Emax [12] was 834%. For the same compound, the Emax [13] was 371%, the GI50 [14] was 9160 nM and the inhibition [15] was 53%. The inhibition [16] was 79%, the inhibition [17] was 86% and the Activity [18] was “Active”. The Emax [19] was 582%, the Emin [20] was 114.7% and the Activity [21] was “Active”. For the same compound, the GI50 [22] was 17.6 nM, the Emax [23] was 422% and the Activity [24] was “Active”. The GI50 [25] was 13.4 nM, the Emin [26] was 94.6% and the Emax [27] was 515%. For the same compound, the GI50 [28] was 18.9 nM, the IC50 at 72 h [29] was 7 nM and the inhibition [30] was 72%. For the same compound, the Emax [31] was 645%, the Emin [32] was 124.1% and the Emin [33] was 90.9%. The GI50 [34] was 17.4 nM, the Activity [35] was “Active” and the GI50 [36] was 19.4 nM. It also gave an Emin [37] of 109%, an Emin [38] of 179.8% and a GI50 [39] of 14700 nM.
